Values joined by “and” are separate entries in the source; they are usually repeats but may differ in a detail not shown here. Identical values can stand only once. Like-named read-outs stand apart in the source and are kept apart here.
Tested on: Influenza A virus neuraminidase inhibitor-resistant strain (ZX-1109)
Type: cell-based
Conditions: for average inactivation efficiency against virus: ZX1109 virus, three experiments; for residual virus titer of EGCG+virus group (Karber method) / inactivation efficiency against the virus: ZX-1109 virus; for inactivation efficiency against the virus: single experiment

O=C(O[C@@H]1Cc2c(O)cc(O)cc2O[C@@H]1c1cc(O)c(O)c(O)c1)c1cc(O)c(O)c(O)c1 [EGCG, Epigallocatechin gallate]
CPE test (virus replication in the cell wells) (1 mM EGCG + ZX-1109 virus, 1 minute, third experiment, dilution factor 10^6, wells 1-10): − and + | CPE test (virus replication in the cell wells) (1 mM EGCG + ZX-1109 virus, 1 minute, third experiment, dilution factor 10^7, wells 1-10): − | CPE test (virus replication in the cell wells) (1 mM EGCG + ZX-1109 virus, 1 minute, third experiment, dilution factor 10^8, wells 1-10): − | CPE test (virus replication in the cell wells) (1 mM EGCG + ZX-1109 virus, 5 minute, first experiment, dilution factor 10^2, wells 1-10): + | CPE test (virus replication in the cell wells) (1 mM EGCG + ZX-1109 virus, 5 minute, first experiment, dilution factor 10^3, wells 1-10): + | CPE test (virus replication in the cell wells) (1 mM EGCG + ZX-1109 virus, 5 minute, first experiment, dilution factor 10^4, wells 1-10): + | CPE test (virus replication in the cell wells) (1 mM EGCG + ZX-1109 virus, 5 minute, first experiment, dilution factor 10^5, wells 1-10): + and − | CPE test (virus replication in the cell wells) (1 mM EGCG + ZX-1109 virus, 5 minute, first experiment, dilution factor 10^6, wells 1-10): − and + | CPE test (virus replication in the cell wells) (1 mM EGCG + ZX-1109 virus, 5 minute, first experiment, dilution factor 10^7, wells 1-10): − and + | CPE test (virus replication in the cell wells) (1 mM EGCG + ZX-1109 virus, 5 minute, first experiment, dilution factor 10^8, wells 1-10): + and − | CPE test (virus replication in the cell wells) (1 mM EGCG + ZX-1109 virus, 5 minute, second experiment, dilution factor 10^2, wells 1-10): + | CPE test (virus replication in the cell wells) (1 mM EGCG + ZX-1109 virus, 5 minute, second experiment, dilution factor 10^3, wells 1-10): + | CPE test (virus replication in the cell wells) (1 mM EGCG + ZX-1109 virus, 5 minute, second experiment, dilution factor 10^4, wells 1-10): + | CPE test (virus replication in the cell wells) (1 mM EGCG + ZX-1109 virus, 5 minute, second experiment, dilution factor 10^5, wells 1-10): + and − | CPE test (virus replication in the cell wells) (1 mM EGCG + ZX-1109 virus, 5 minute, second experiment, dilution factor 10^6, wells 1-10): − and + | CPE test (virus replication in the cell wells) (1 mM EGCG + ZX-1109 virus, 5 minute, second experiment, dilution factor 10^7, wells 1-10): − and + | CPE test (virus replication in the cell wells) (1 mM EGCG + ZX-1109 virus, 5 minute, second experiment, dilution factor 10^8, wells 1-10): − and + | CPE test per cell well (1 mM EGCG + ZX-1109 virus, 5 minute, third experiment, dilution factor 10^2, wells 1-10): + | CPE test per cell well (1 mM EGCG + ZX-1109 virus, 5 minute, third experiment, dilution factor 10^3, wells 1-10): + | CPE test per cell well (1 mM EGCG + ZX-1109 virus, 5 minute, third experiment, dilution factor 10^4, wells 1-10): + | CPE test per cell well (1 mM EGCG + ZX-1109 virus, 5 minute, third experiment, dilution factor 10^5, wells 1-10): − and + | CPE test per cell well (1 mM EGCG + ZX-1109 virus, 5 minute, third experiment, dilution factor 10^6, wells 1-10): + and − | CPE test per cell well (1 mM EGCG + ZX-1109 virus, 5 minute, third experiment, dilution factor 10^7, wells 1-10): − and + | CPE test per cell well (1 mM EGCG + ZX-1109 virus, 5 minute, third experiment, dilution factor 10^8, wells 1-10): + and − | average inactivation efficiency against virus (1 mM EGCG, 1 minute): 89.97% | average inactivation efficiency against virus (1 mM EGCG, 5 minutes): 97.59% | residual virus titer of EGCG+virus group (Karber method) (1 mM EGCG, 1 minute): 10^5 TCID50/50 μL | inactivation efficiency against the virus (1 mM EGCG, 1 minute): 93.69% and 92.06% and 84.15% | residual virus titer of EGCG+virus group (Karber method) (1 mM EGCG, 5 minutes): 10^6 TCID50/50 μL | inactivation efficiency against the virus (1 mM EGCG, 5 minutes): 96.02% and 98.74% and 98.00% | CPE test per cell well (5 mM EGCG + ZX1109 virus, 1 minute, second experiment, dilution factor 10^3, wells 1-10): + | CPE test per cell well (5 mM EGCG + ZX1109 virus, 1 minute, second experiment, dilution factor 10^4, wells 1-10): + and − | CPE test per cell well (5 mM EGCG + ZX1109 virus, 1 minute, second experiment, dilution factor 10^5, wells 1-10): − and + | CPE test per cell well (5 mM EGCG + ZX1109 virus, 1 minute, second experiment, dilution factor 10^6, wells 1-10): − | CPE test per cell well (5 mM EGCG + ZX1109 virus, 1 minute, second experiment, dilution factor 10^7, wells 1-10): − | CPE test per cell well (5 mM EGCG + ZX1109 virus, 1 minute, second experiment, dilution factor 10^8, wells 1-10): − | CPE test per cell well (5 mM EGCG + ZX-1109 virus, 1 minute, first experiment, dilution factor 10^2, wells 1-10): + | CPE test per cell well (5 mM EGCG + ZX-1109 virus, 1 minute, first experiment, dilution factor 10^3, wells 1-10): + | CPE test per cell well (5 mM EGCG + ZX-1109 virus, 1 minute, first experiment, dilution factor 10^4, wells 1-10): + and − | CPE test per cell well (5 mM EGCG + ZX-1109 virus, 1 minute, first experiment, dilution factor 10^5, wells 1-10): + and − | CPE test per cell well (5 mM EGCG + ZX-1109 virus, 1 minute, first experiment, dilution factor 10^6, wells 1-10): − | CPE test per cell well (5 mM EGCG + ZX-1109 virus, 1 minute, first experiment, dilution factor 10^7, wells 1-10): − | CPE test per cell well (5 mM EGCG + ZX-1109 virus, 1 minute, first experiment, dilution factor 10^8, wells 1-10): − | CPE test (virus replication in the cell wells) (5 mM EGCG + ZX-1109 virus, 1 minute, third experiment, dilution factor 10^2, wells 1-10): + | CPE test (virus replication in the cell wells) (5 mM EGCG + ZX-1109 virus, 1 minute, third experiment, dilution factor 10^3, wells 1-10): + | CPE test (virus replication in the cell wells) (5 mM EGCG + ZX-1109 virus, 1 minute, third experiment, dilution factor 10^4, wells 1-10): + and − | CPE test (virus replication in the cell wells) (5 mM EGCG + ZX-1109 virus, 1 minute, third experiment, dilution factor 10^5, wells 1-10): − | CPE test (virus replication in the cell wells) (5 mM EGCG + ZX-1109 virus, 1 minute, third experiment, dilution factor 10^6, wells 1-10): − | CPE test (virus replication in the cell wells) (5 mM EGCG + ZX-1109 virus, 1 minute, third experiment, dilution factor 10^7, wells 1-10): − | CPE test (virus replication in the cell wells) (5 mM EGCG + ZX-1109 virus, 1 minute, third experiment, dilution factor 10^8, wells 1-10): − | CPE test (virus replication in the cell wells) (5 mM EGCG + ZX-1109 virus, 5 minute, first experiment, dilution factor 10^3, wells 1-10): + | CPE test (virus replication in the cell wells) (5 mM EGCG + ZX-1109 virus, 5 minute, first experiment, dilution factor 10^4, wells 1-10): + and − | CPE test (virus replication in the cell wells) (5 mM EGCG + ZX-1109 virus, 5 minute, first experiment, dilution factor 10^5, wells 1-10): − and + | CPE test (virus replication in the cell wells) (5 mM EGCG + ZX-1109 virus, 5 minute, first experiment, dilution factor 10^6, wells 1-10): − and + | CPE test (virus replication in the cell wells) (5 mM EGCG + ZX-1109 virus, 5 minute, first experiment, dilution factor 10^7, wells 1-10): − and + | CPE test (virus replication in the cell wells) (5 mM EGCG + ZX-1109 virus, 5 minute, first experiment, dilution factor 10^8, wells 1-10): − | CPE test (virus replication in the cell wells) (5 mM EGCG + ZX-1109 virus, 5 minute, second experiment, dilution factor 10^3, wells 1-10): + | CPE test (virus replication in the cell wells) (5 mM EGCG + ZX-1109 virus, 5 minute, second experiment, dilution factor 10^4, wells 1-10): − and + | CPE test (virus replication in the cell wells) (5 mM EGCG + ZX-1109 virus, 5 minute, second experiment, dilution factor 10^5, wells 1-10): − and + | CPE test (virus replication in the cell wells) (5 mM EGCG + ZX-1109 virus, 5 minute, second experiment, dilution factor 10^6, wells 1-10): − | CPE test (virus replication in the cell wells) (5 mM EGCG + ZX-1109 virus, 5 minute, second experiment, dilution factor 10^7, wells 1-10): − | CPE test (virus replication in the cell wells) (5 mM EGCG + ZX-1109 virus, 5 minute, second experiment, dilution factor 10^8, wells 1-10): − | CPE test per cell well (5 mM EGCG + ZX-1109 virus, 5 minute, third experiment, dilution factor 10^3, wells 1-10): + | CPE test per cell well (5 mM EGCG + ZX-1109 virus, 5 minute, third experiment, dilution factor 10^4, wells 1-10): − and + | CPE test per cell well (5 mM EGCG + ZX-1109 virus, 5 minute, third experiment, dilution factor 10^5, wells 1-10): − | CPE test per cell well (5 mM EGCG + ZX-1109 virus, 5 minute, third experiment, dilution factor 10^6, wells 1-10): − | CPE test per cell well (5 mM EGCG + ZX-1109 virus, 5 minute, third experiment, dilution factor 10^7, wells 1-10): − | CPE test per cell well (5 mM EGCG + ZX-1109 virus, 5 minute, third experiment, dilution factor 10^8, wells 1-10): − | average inactivation efficiency against virus (5 mM EGCG, 1 minute): 93.73% | average inactivation efficiency against virus (5 mM EGCG, 5 minutes): 99.86% | inactivation efficiency against the virus (5 mM EGCG, 1 minute): 90.00% and 93.69% and 97.49% | inactivation efficiency against the virus (5 mM EGCG, 5 minutes): 99.60% and 99.99%
